# Experimental data published in patent publication US20260345723A1, “Treatments for Opioid-Induced Respiratory Depression” (priority 2023, published 2026).
# Read-outs that look alike come from different tables or passages of the source.
# Key:
# CCR5 [1] = settings: cited from earlier work
# CCR8 [2] = settings: mechanism involving CCR8; cited from earlier work
# [3] = tested on: mu-opioid receptor (OPRM1)
# neuropathic pain = settings: previous research; cited from earlier work
# CCR2 [4] = tested on: CCR2
# [5] = tested on: heroin self-administration; experiment: Heroin intravenous self-administration (FR and PR); type: in vivo, rat (male Sprague Dawley); settings: RAP-103 1 mg/kg IP
# Excerpt: Adult male Sprague Dawley (226-275 g) were purchased from Taconic Laboratories and maintained on a 12-hour/12-hour light/dark cycle with the lights off at 9:30 a.m. in a temperature- and humidity-controlled animal care facility. For the duration of the experiment, rats were housed two per cage and given unrestricted access to food and water at all times when in the home cage.
# Rats were anesthetized using vaporized isoflurane delivered via nebulizer. An indwelling silastic catheter was threaded subcutaneously over the shoulder blade, inserted in the jugular vein and sutured in place. The catheter routed to a cotton back mount platform that was sutured below the skin between the shoulder blades. Post-operation, catheters were flushed daily with 0.2 ml of timentin (0.93 mg/mL) dissolved in heparinized saline and covered with magnetic aluminum caps.
# Following 5 days of post-operative recovery, rats began daily intravenous self-administration of heroin in Med-Associates operant chambers for at least 10 d. […] During IVSA, infusions of 0.1 mg/kg/inf heroin were rewarded to the animal after pressing the active lever. […]
# Progressive ratio (PR) schedules of drug delivery are used to determine the ‘motivational’ state of an animal and drug reinforcing efficacy. […] BP is a dependent measure used to quantify the degree to which the subject will work to get the next administration of the drug which serves as a reinforcer in the self-administration paradigm. […]
# Respiratory depression data were analyzed by two-way ANOVA (RAP-103 pretreatment×morphine treatment) followed by a Bonferroni's multiple comparison test. Physical dependence data were analyzed by a Student's t-test. Self-administration (SA) time-course data for heroin and sucrose were analyzed by two-way ANOVA (RAP-103 treatment x day) followed by a Bonferroni's multiple comparison test. SA PR challenge data were analyzed by a Student's t-test. Protein and mRNA data were analyzed by two-way ANOVA (RAP-103 pretreatment x morphine treatment) followed by a Newman-Keuls post-hoc analysis. […]
# CCR5 [6] = tested on: CCR5
# [7] = type: in vivo, Rhesus macaque (Macaca mulatta); settings: seven days
# CCR8 [8] = settings: cited from earlier work
# pain pathways = settings: cited from earlier work
# [9] = tested on: opioid-induced respiratory depression; experiment: Example 4: treatment of a subject prescribed a high level of opioids; type: in vivo, human; settings: oral pill, concurrent with opioids
# Excerpt: A subject is prescribed a high level of opioids to treat a pain. The subject is concurrently administered RAP-103 to treat opioid-induced respiratory depression. RAP-103 is orally administered to the subject as a pill to treat the opioid-induced respiratory depression. After administration, the subject has no change in their respiratory rate and blood oxygen levels (e.g., maintains full respiratory function).
# [10] = type: in vivo, rodents and non-human primates (Rhesus macaque)
# [11] = tested on: molecular hallmarks of neuropathic pain; settings: previous research; cited from earlier work
# CCR2 [12] = settings: CCR2, monocyte chemotaxis; read-out: half maximal inhibitory concentration IC50; cited from earlier work
# [13] = RAP-103 pretreatment 1 mg/kg IP + morphine, P<0.05
# [14] = RAP-103 only vs drug-naïve, P>0.05
# [15] = RAP-103/morphine exposure, P>0.05
substance,measurement,setting,value
D-Thr-D-Thr-D-Asn-D-Tyr-D-Thr [RAP-103],"inhibition of chemokine ligand binding, CCR5",CCR5 [1],at least partially inhibits
same,microglial chemotaxis,CCR8 [2],inhibit
same,microglial morphological change,CCR8 [2],inhibit
same,"OPRM1 protein levels, PFC","[3]; RAP-103 + morphine, vs drug-naïve (P<0.01) and morphine only (P<0.05)",significantly elevated
same,"OPRM1 protein levels, VTA",[3]; [13],normalized the morphine-induced enhancement in OPRM1 levels
same,mechanical allodynia,neuropathic pain,attenuate
same,thermal hyperalgesia,neuropathic pain,attenuate
same,"CCR2 protein levels, VTA",CCR2 [4]; RAP-103 1 mg/kg IP + morphine,did not alter morphine enhancement of CCR2
same,"CCR2 protein levels, PFC","CCR2 [4]; RAP-103 by itself vs drug-naïve, P<0.05",reduction in CCR2 protein levels
same,"CCR2 protein levels, NAC",CCR2 [4]; [14],did not display significantly different levels
same,"CCR2 protein levels, VTA",CCR2 [4]; [14],not significantly different
same,"CCR2 protein levels, NAC","CCR2 [4]; RAP-103 pretreatment 1 mg/kg IP + morphine, P<0.01",normalized morphine-induced deficits in CCR2 levels
same,responding on the inactive lever,[5],did not impact responding on the inactive lever
same,heroin PR breakpoint,"[5]; PR challenge, P<0.05 vs saline",significantly lower breakpoints
same,"active lever responding (heroin SA, FR-1)","[5]; heroin 0.1 mg/kg/inf, days 8 (P<0.05), 9 and 10 (P<0.001)",significantly reduced active lever responding
same,"CCR5 protein levels, NAC",CCR5 [6]; [14],did not display significantly different levels
same,"CCR5 protein levels, VTA",CCR5 [6]; [14],not significantly different
same,"CCR5 protein levels, NAC",CCR5 [6]; [13],normalized morphine-induced deficits in CCR5 levels
same,"CCR5 protein levels, PFC","CCR5 [6]; rats receiving RAP-103 vs drug-naïve, P<0.05",lower CCR5 levels
same,acute toxicity,[7],no acute toxicity
same,body weights,[7],no RAP-103-related changes
same,clinical observations,[7],no RAP-103-related changes
same,"IBA1 mRNA levels, NAC","IBA1 mRNA; RAP-103 + morphine vs drug-naïve and morphine by itself, P<0.01",significantly enhanced
same,"IBA1 mRNA, PFC",IBA1 mRNA; [15],significant changes in GFAP or IBA1 were not detected
same,"IBA1 mRNA levels, VTA","IBA1 mRNA; RAP-103 pretreatment vs drug-naïve, P<0.05",significantly increased IBA1 mRNA levels
same,"microglial mRNA levels, VTA and NAC",IBA1 mRNA; morphine-naïve and morphine-abstinent rats,enhanced microglial mRNA levels
same,"GFAP mRNA, PFC",GFAP mRNA; [15],significant changes in GFAP or IBA1 were not detected
same,"GFAP gene expression, NAC","GFAP mRNA; RAP-103 pretreatment + morphine, P<0.05",normalized the augmentation in GFAP gene expression
same,"GFAP mRNA levels, VTA","GFAP mRNA; RAP-103 pretreatment, morphine-naïve and morphine-treated rats, vs drug-naïve, P<0.05",significantly reduced GFAP mRNA levels
same,"inhibition of chemokine ligand binding, CCR8",CCR8 [8],at least partially inhibits
same,monocyte infiltration,pain pathways,reduces
same,spinal microglial activation,pain pathways,reduces
same,"CXCR4 protein levels, VTA",CXCR4; RAP-103 1 mg/kg IP + morphine,did not alter morphine enhancement of CCR2 or CXCR4
same,"CXCR4 protein levels, NAC",CXCR4; [14],did not display significantly different levels
same,"CXCR4 protein levels, VTA",CXCR4; [14],not significantly different
same,blood oxygen levels,[9],no change
same,respiratory rate,[9],no change
same,"brain entry, oral compared to IV dosing",[10]; FIG. 10A,preferentially entered the brain by oral compared to IV dosing
same,brain entry,"[10]; oral and IV dosing, rodents and non-human primates",quickly entered the brain
same,cell membrane ruffling,[11],downregulate
same,immune cell migration,[11],downregulate
same,phagocytosis,[11],downregulate
same,IC50,CCR2 [12],4.2 pM
